Assays:
Test in all cases: relative viability vs DMSO control (72 h) (fraction); higher = more viable cells
SW684 = test system: SW684
Outline: (§1)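 Relative viability is percent growth read by ATPLite and averaged over up to triplicate wells. Sarcoma cells were seeded in 384-well plates to reach 80–90% confluence and given 2.5 µl of serially diluted compound after 24 h, from source plates of 10 mM to 0.0002 mM. Incubation lasted 72 h at 37 °C, 5% CO2, with 0.1% DMSO vehicle and a 5 µM positive control, and the data were rescaled so 1 equals full and 0 equals none.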

A204 = test system: A204
Outline: as §1

SK-ES-1 = test system: SK-ES-1
Outline: as §1

G401 = test system: G401
Outline: as §1

SK-LMS-1 = test system: SK-LMS-1
Outline: as §1

HS729 = test system: HS729
Outline: as §1

SW872 = test system: SW872
Outline: as §1

MES-SA = test system: MES-SA
Outline: as §1

SYO-1 = test system: SYO-1
Outline: as §1

SW1353 = test system: SW1353
Outline: as §1

SW982 = test system: SW982
Outline: as §1

KHOS-240S = test system: KHOS-240S
Outline: as §1

COc1cc(N2CCC(N3CCN(C)CC3)CC2)ccc1Nc1ncc(Cl)c(Nc2ccccc2P(C)(C)=O)n1 [Brigatinib]
Settings	relative viability
A204, 0.00017 µM	1.06
A204, 0.00051 µM	1.08
A204, 0.00152 µM	1.03
A204, 0.00457 µM	1.06
A204, 0.01372 µM	1.04
A204, 0.04115 µM	1.03
A204, 0.1235 µM	1.06
A204, 0.3704 µM	0.991
A204, 1.111 µM	0.692
A204, 3.333 µM	0.262
A204, 10 µM	0.0135
G401, 0.00017 µM	0.983
G401, 0.00051 µM	0.972
G401, 0.00152 µM	0.9624
G401, 0.00457 µM	0.9721
G401, 0.01372 µM	0.941
G401, 0.04115 µM	0.909
G401, 0.1235 µM	0.923
G401, 0.3704 µM	0.764
G401, 1.111 µM	0.626
G401, 3.333 µM	0.261
G401, 10 µM	0.0657
HS729, 0.00017 µM	0.91
HS729, 0.00051 µM	0.925
HS729, 0.00152 µM	0.933
HS729, 0.00457 µM	0.909
HS729, 0.01372 µM	0.858
HS729, 0.04115 µM	0.771
HS729, 0.1235 µM	0.685
HS729, 0.3704 µM	0.595
HS729, 1.111 µM	0.417
HS729, 3.333 µM	0.199
HS729, 10 µM	0.0341
KHOS-240S, 0.00017 µM	1.04
KHOS-240S, 0.00051 µM	1.04
KHOS-240S, 0.00152 µM	1.02
KHOS-240S, 0.00457 µM	1.01
KHOS-240S, 0.01372 µM	0.989
KHOS-240S, 0.04115 µM	0.978
KHOS-240S, 0.1235 µM	0.92
KHOS-240S, 0.3704 µM	0.754
KHOS-240S, 1.111 µM	0.445
KHOS-240S, 3.333 µM	0.0468
KHOS-240S, 10 µM	0.0051
MES-SA, 0.00017 µM	0.864
MES-SA, 0.00051 µM	0.843
MES-SA, 0.00152 µM	0.866
MES-SA, 0.00457 µM	0.893
MES-SA, 0.01372 µM	0.859
MES-SA, 0.04115 µM	0.894
MES-SA, 0.1235 µM	0.956
MES-SA, 0.3704 µM	1.01
MES-SA, 1.111 µM	0.948
MES-SA, 3.333 µM	0.385
MES-SA, 10 µM	0.135
SK-ES-1, 0.00017 µM	0.96
SK-ES-1, 0.00051 µM	0.986
SK-ES-1, 0.00152 µM	0.971
SK-ES-1, 0.00457 µM	0.973
SK-ES-1, 0.01372 µM	1
SK-ES-1, 0.04115 µM	0.951
SK-ES-1, 0.1235 µM	0.825
SK-ES-1, 0.3704 µM	0.496
SK-ES-1, 1.111 µM	0.251
SK-ES-1, 3.333 µM	0.0717
SK-ES-1, 10 µM	0.0369
SK-LMS-1, 0.00017 µM	1.04
SK-LMS-1, 0.00051 µM	1
SK-LMS-1, 0.00152 µM	1.02
SK-LMS-1, 0.00457 µM	0.986
SK-LMS-1, 0.01372 µM	0.998
SK-LMS-1, 0.04115 µM	1.02
SK-LMS-1, 0.1235 µM	1.02
SK-LMS-1, 0.3704 µM	0.924
SK-LMS-1, 1.111 µM	0.757
SK-LMS-1, 3.333 µM	0.556
SK-LMS-1, 10 µM	0.331
SW684, 0.00017 µM	1.04
SW684, 0.00051 µM	1.05
SW684, 0.00152 µM	1.05
SW684, 0.00457 µM	0.992
SW684, 0.01372 µM	1.06
SW684, 0.04115 µM	1.06
SW684, 0.1235 µM	1.04
SW684, 0.3704 µM	1.02
SW684, 1.111 µM	0.921
SW684, 3.333 µM	0.573
SW684, 10 µM	0.2498
SW872, 0.00017 µM	0.989
SW872, 0.00051 µM	0.969
SW872, 0.00152 µM	0.967
SW872, 0.00457 µM	0.94
SW872, 0.01372 µM	0.926
SW872, 0.04115 µM	0.885
SW872, 0.1235 µM	0.818
SW872, 0.3704 µM	0.626
SW872, 1.111 µM	0.469
SW872, 3.333 µM	0.321
SW872, 10 µM	0.288
SW982, 0.00017 µM	1.03
SW982, 0.00051 µM	1.03
SW982, 0.00152 µM	1.03
SW982, 0.00457 µM	1.01
SW982, 0.01372 µM	0.954
SW982, 0.04115 µM	0.869
SW982, 0.1235 µM	0.695
SW982, 0.3704 µM	0.383
SW982, 1.111 µM	0.122
SW982, 3.333 µM	0.00817
SW982, 10 µM	0.00797
SW1353, 0.00017 µM	0.909
SW1353, 0.00051 µM	0.922
SW1353, 0.00152 µM	0.907
SW1353, 0.00457 µM	0.903
SW1353, 0.01372 µM	0.896
SW1353, 0.04115 µM	0.851
SW1353, 0.1235 µM	0.824
SW1353, 0.3704 µM	0.647
SW1353, 1.111 µM	0.449
SW1353, 3.333 µM	0.147
SW1353, 10 µM	0.0131
SYO-1, 0.00017 µM	0.95
SYO-1, 0.00051 µM	0.952
SYO-1, 0.00152 µM	0.922
SYO-1, 0.00457 µM	0.889
SYO-1, 0.01372 µM	0.846
SYO-1, 0.04115 µM	0.768
SYO-1, 0.1235 µM	0.706
SYO-1, 0.3704 µM	0.501
SYO-1, 1.111 µM	0.239
SYO-1, 3.333 µM	0.0457
SYO-1, 10 µM	-0.0131

Reference: the supplement of paper PMC10883282
